According to patent publication US20230144898A1, “INHIBITOR OF ASPARTIC ACID SYNTHESIS IN TUMOR CELLS, INHIBITOR OF SPHEROID FORMATION OF TUMOR CELLS, INHIBITOR OF TUMOR CELL METASTASIS, ACTIVITY ENHANCER OF GLYCOLYTIC INHIBITOR, AND PHARMACEUTICAL COMPOSITION FOR SUPPRESSING AND/OR PREVENTING TUMOR METASTASIS” (CCI HOLDINGS INC., priority 2020, published 2023):
Values joined by “and” are separate entries in the source; they are usually repeats but may differ in a detail not shown here. Identical values can stand only once. “Also recorded” adds a separate entry of the source. Like-named read-outs stand apart in the source and are kept apart here.

Assays:
[1] = test system: CMeCl cells (canine malignant melanoma cells); assay: Proliferation inhibition, CMeC1 cells, trypan blue viable cell count (Test Example 1); format: cell-based; conditions: for IC50: Cell line: CMeC1, incubated for 72 hours
Description: Four compounds of petasin, S-petasin, neopetasin and neo-S-petasin were evaluated for the inhibitory effect on proliferation of mouse or canine malignant melanoma cells by the following method.
B16F10 cells (mouse malignant melanoma cells) were obtained from JCRB Cell Bank (National Institutes of Biomedical Innovation, Health and Nutrition). In addition, CMeCl cells (canine malignant melanoma cells) were obtained from Veterinary Surgery Laboratory, Graduate School of Agricultural and Life Sciences, the University of Tokyo. Furthermore, A2058 cells (human malignant melanoma cells) were obtained from JCRB Cell Bank (National Institutes of Biomedical Innovation, Health and Nutrition). B16F10 cells were cultured in a 37° C. incubator (air/CO2 = 95/5 (v/v)) using Dulbecco’s modified Eagle’s medium (DMEM), CMeCl cells in RPMI (Roswell Park Memorial Institute) medium (RPMI1640), and A2058 cells in E-MEM medium.
First, CMeCl cells (canine malignant melanoma cells) were seeded in a six-well plate so as to be 0.5×10^5 cells/mL, and after 24 hours therefrom, each of the above four kinds of compounds (final concentration: 0.01 to 100 µg/mL) was suspended in the medium at a ratio of 0.1% and incubated for 72 hours. 72 hours after the start of culture, the number of viable cells was measured by trypan blue staining. At this time, viable cells (cell viability%) were calculated as the relative number of cells when the number of viable cells in a negative control section (DMSO treatment) was taken as 100%. Then, IC50 was calculated using a GraphPad Prism software system (GraphPad Software Inc.).

[2] = test system: B16F10 cells (mouse malignant melanoma cells); assay: Proliferation inhibition, B16F10 cells (Test Example 1); format: cell-based; conditions: B16-F10, read-out: IC50, proliferation inhibitory activity on B16F10 cells
[3] = Microscopic observation of organ tissue sections of model mice (Test Example 2); format: in vivo; conditions: heart, normal site of lung, cerebrum, kidney, liver, spleen, 50 mg/kg i.p.
Description: Furthermore, when the model mouse to which neopetasin or corn oil was administered was dissected in the above, sections were prepared from the tissues of each organ (heart, normal site of lung, cerebrum, kidney, liver, spleen) and were observed using a microscope. […] The results are consistent with specificity of the action of neopetasin on tumor cells in vitro as described above in Test

[4] = test system: B16F10 cells; assay: Influence on anticancer action of 2-DG, cell viability (Test Example 3); format: cell-based, mouse; conditions: neopetasin 0.3 µM or 3 µM with 2-DG, 36 hours
Description: Specifically, to start with, B16F10 cells were seeded in a six-well plate in an amount of 0.5×10^5 cells/mL. Next, after 24 hours starting from seeding, 2-DG (concentration changed from 3 mM to 3 nM) was added and simultaneously treated with neopetasin at a concentration of 0.3 µM or 3 µM. Then, after 36 hours starting from this treatment, the cell viability was measured through the same method as in Test Example 1. Moreover, as a negative control section, DMSO was administered to perform the same experiment.

[5] = test system: B16F10 cells; assay: Scratch wound healing assay (Test Example 5); format: cell-based, mouse; conditions: 0.3 µM, 72 hours
Description: Specifically, to start with, B16F10 cells were seeded in a six-well plate in an amount of 1.0×10^5 cells/mL. After 24 hours starting from seeding, scratches were then made using 200 µL chips. Thereafter, the medium was changed to a neopetasin-containing one (concentration: 0.3 µM), the cells were further cultured for 72 hours, and the cells were photographed. In addition, as a negative control section, the same experiment was performed by replacing the medium with the same medium not containing neopetasin.

[6] = test system: mitochondria in B16F10 cells; assay: MitoTracker Orange staining of mitochondria (Test Example 8); format: cell-based, mouse
Description: In order to determine the action mechanism of neopetasin on inhibiting the aspartic acid synthesis in tumor cells, the influence of neopetasin on mitochondria in B16F10 cells was evaluated. Specifically, B16F10 cells treated with neopetasin (3 µM) for 48 hours through the same method as in Test Example 1 were stained using MitoTracker Orange (Thermo Fisher Scientific, MA, USA), which labels mitochondria depending on membrane potential. In addition, as a positive control section, in place of neopetasin, metformin known as a mitochondrial respiratory chain Complex I inhibitor (mitochondrial toxin) was used at a concentration of 5000 µM to perform the same experiment. Subsequently, the cells stained as described above were photographed with a fluorescence microscope (FIG. 9A). In addition, the relationship between fluorescence intensity of the cells and the distribution of the number of cells was measured using an image cytometer (Tali, Thermo Fisher Scientific, MA, USA) (FIG. 9B).

[7] = test system: KMeC cells (canine malignant melanoma cells); assay: Western blotting of cancer-related proteins, KMeC cells (Test Example 10); format: cell-based; conditions: 3 µM, 56 hours
Description: KMeC cells (canine malignant melanoma cells) were obtained from the Veterinary Surgery Laboratory, Graduate School of Agricultural and Life Sciences, the University of Tokyo. KMeC cells were cultured in an incubator (air/CO2 = 95/5 (v/v)) at 37° C. using RPMI1640 medium.
To start with, each cell was seeded at 0.5×10^5 cells/mL in a six-well plate, and after 24 hours of seeding, neopetasin (final concentration: 3 µM) was suspended in a medium and incubated for 56 hours. […] thus treated with neopetasin (3 µM) for 56 hours were recovered with a cell scraper. Furthermore, DMSO was administered to the negative control section, and the same experiment was performed.
Next, the cells were homogenized in ice-cold lysis buffer (10 mM Tris-HCl (pH 7.4), 1% (w/v) NP-40, 0.1% (w/v) deoxycholic acid, 0.1% (w/v) SDS, 150 mM NaCl, 1 mM EDTA, and 1% (w/v) protease inhibitor cocktail (Sigma-Aldrich) and allowed to stand on ice for 20 minutes. The homogenate was centrifuged at 13,000 rpm for 20 minutes (4° C.), and then the supernatant was collected as a sample for Western blotting. The protein content in the sample was measured using a DC protein assay kit (manufactured by Bio-Rad Laboratories, Inc.). A sample (protein amount of 5 µg) was separated by SDS-PAGE using 10.0 or 12.5% (w/v) polyacrylamide gel, and transferred to a PVDF membrane (PerkinElmer Life Science Co., Ltd). […]

C=C(C)[C@H]1C[C@@]2(C)C(=CC1=O)CC[C@@H](OC(=O)/C(C)=C\C)[C@@H]2C [Neopetasin, neopetasin]
inhibitory effect on proliferation of CMeCl cells ([1]; 72 hours): showed the strongest activity
IC50 ([1]; Canis lupus familiaris, 72 h, read-out: IC50): 990 nM
IC50 ([1]; Canis lupus familiaris, 72 h, read-out: IC50 (µg/mL)): 0.314 µg/mL
IC50 ([1]; read-out: IC50): 991 nM
IC50 [2]: 493 nM and 0.156 µg/mL
histological and morphological changes / toxicity in organs [3]: no histological and morphological changes; also recorded: showed little toxicity to the liver, kidney, spleen
anticancer action of 2-DG on addition of neopetasin [4]: enhanced in a concentration-dependent manner
migration of tumor cells to the scratch portion [5]: suppressed
activity relative to metformin ([6]; neopetasin 3 µM vs metformin 5000 µM): ≥ 1000 times
MitoTracker Orange fluorescence intensity ([6]; neopetasin 3 µM, metformin 5000 µM, 48 hours): enhanced fluorescence intensity
expression of cancer-related molecules [7]: inhibit a wide range of cancer-related molecules
